Two compounds from patent publication US20060211710A1, “Substituted aryl 1,4-pyrazine derivatives” (Pfizer Inc, priority 2005, published 2006) can be followed below.

The assay addresses T1, CRF1 receptor (Rattus norvegicus, UniProt P35353).
T1 construct: from tissue; host or cells: rat frontal cortex membranes
T1 sequence (P35353 24-415): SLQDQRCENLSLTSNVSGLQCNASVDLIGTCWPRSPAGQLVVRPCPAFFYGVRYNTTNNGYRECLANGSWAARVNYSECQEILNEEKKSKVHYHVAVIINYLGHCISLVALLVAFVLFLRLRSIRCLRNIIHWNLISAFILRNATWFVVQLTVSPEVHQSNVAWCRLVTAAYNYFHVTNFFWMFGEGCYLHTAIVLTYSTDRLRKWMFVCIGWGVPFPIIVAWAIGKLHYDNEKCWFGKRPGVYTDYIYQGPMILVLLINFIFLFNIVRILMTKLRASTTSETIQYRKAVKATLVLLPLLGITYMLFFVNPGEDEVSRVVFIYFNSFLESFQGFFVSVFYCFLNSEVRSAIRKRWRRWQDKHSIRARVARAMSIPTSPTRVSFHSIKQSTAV
In words: CRF1 Receptor Binding Assay (rat brain membranes, 125I-ovine-CRF). The conditions noted are these: read-out: Ki, the binding constant to the CRF1 receptor. The method, then: The following is a description of the isolation of rat brain membranes for use in the standard binding assay as well as a description of the binding assay itself. It is based on a modified protocol described by De Souza (De Souza, 1987).
To prepare brain membranes for binding assays, rat frontal cortex is homogenized in 10 mL of ice cold tissue buffer (50 mM HEPES buffer pH 7.0, containing 10 mM MgCl2, 2 mM EGTA, 1 μg/ml aprotinin, 1 μg/ml leupeptin and 1 μg/ml pepstatin). The homogenate is centrifuged at 48,000×g for 10 min. and the resulting pellet rehomogenized in 10 mL of tissue buffer. Following an additional centrifugation at 48,000×g for 10 min., the pellet is resuspended to a protein concentration of 300 μg/mL.
Binding assays are performed in 96 well plates at a final volume of 300 μL. The assays are initiated by the addition of 150 μL membrane suspension to 150 μL of assay buffer containing ^125I-ovine-CRF (final concentration 150 pM) and various concentrations of inhibitors. […] Filters are assessed for radioactivity in a Packard TopCount. Nonspecific binding is determined in the presence of excess (10 μM) α-helical CRF. […]
IC50 values are calculated using standard methods known in the art, such as with the non-linear curve fitting program RS/1 (BBN Software Products Corp., Cambridge, Mass.).

On to `CCO[C@H]1Cc2ccccc2[C@H]1Nc1nc(CC)c(-c2ccc(N(C)C)nc2C)nc1CC` [Example 3, (1R,2S)[5-(6-Dimethylamino-2-methyl-pyridin-3-yl)-3,6-diethyl-pyrazin-2-yl]-(2-ethoxy-indan-1-yl)-amine], for which the Ki is 13 nM. To `CCc1nc(-c2ccc(N(C)C)nc2C)c(CC)nc1N[C@@H]1c2ccccc2C[C@@H]1OC(C)=O` [Example 1, (1R,2S)Acetic acid 1-[5-(6-dimethylamino-2-methyl-pyridin-3-yl)-3,6-diethyl-pyrazin-2-ylamino]-indan-2-yl ester] belongs 19 nM.
